pIC50: −log10 of the molar value.
How the values were obtained:
Fyn = Fyn (Homo sapiens (Human), UniProt P06241); test: Z′-LYTE in vitro Fyn kinase activity assay; assay type: biochemical; details: ATP 50 μM; read-out: FYN KINASE INHIBITION IC50
Protocol: The Fyn kinase inhibitory activity of representative examples of compounds of Formula (1) was evaluated by Z′-LYTE™ Kinase Assay Platform (Invitrogen). Compounds were evaluated towards active Fyn (full length active, molecular weight 87.1 kDa; Invitrogen). […] Samples representing the 0% inhibition (or total enzymatic activity) were in the presence of compound diluent (1% DMSO final in Reaction Buffer 50 mMHepes, 10 mM MgCl2, 1 mM EGTA, 0.01% Brij-35, pH 7.5). The kinase reaction was carried out in a total volume of 10 μl, for 60 minutes at 25° C. The 0% Phosphorylation (i.e. no ATP) and 100% Phosphorylation Assay Controls, included in each plate, allowed to calculate the percent phosphorylation achieved in the specific reaction well. Results are expressed as percentage of inhibition and the IC50 values were calculated by non-linear curve fitting using GraphPad™ Prism software (version 6 for Windows).

VEGFR2 = VEGFR2 (Homo sapiens (Human), UniProt P35968); test: In vitro VEGFR2 kinase activity assay (Eurofins Cerep); assay type: biochemical; details: read-out: VEGFR2 KINASE INHIBITION IC50
Sequence of VEGFR2 (P35968 20-1356): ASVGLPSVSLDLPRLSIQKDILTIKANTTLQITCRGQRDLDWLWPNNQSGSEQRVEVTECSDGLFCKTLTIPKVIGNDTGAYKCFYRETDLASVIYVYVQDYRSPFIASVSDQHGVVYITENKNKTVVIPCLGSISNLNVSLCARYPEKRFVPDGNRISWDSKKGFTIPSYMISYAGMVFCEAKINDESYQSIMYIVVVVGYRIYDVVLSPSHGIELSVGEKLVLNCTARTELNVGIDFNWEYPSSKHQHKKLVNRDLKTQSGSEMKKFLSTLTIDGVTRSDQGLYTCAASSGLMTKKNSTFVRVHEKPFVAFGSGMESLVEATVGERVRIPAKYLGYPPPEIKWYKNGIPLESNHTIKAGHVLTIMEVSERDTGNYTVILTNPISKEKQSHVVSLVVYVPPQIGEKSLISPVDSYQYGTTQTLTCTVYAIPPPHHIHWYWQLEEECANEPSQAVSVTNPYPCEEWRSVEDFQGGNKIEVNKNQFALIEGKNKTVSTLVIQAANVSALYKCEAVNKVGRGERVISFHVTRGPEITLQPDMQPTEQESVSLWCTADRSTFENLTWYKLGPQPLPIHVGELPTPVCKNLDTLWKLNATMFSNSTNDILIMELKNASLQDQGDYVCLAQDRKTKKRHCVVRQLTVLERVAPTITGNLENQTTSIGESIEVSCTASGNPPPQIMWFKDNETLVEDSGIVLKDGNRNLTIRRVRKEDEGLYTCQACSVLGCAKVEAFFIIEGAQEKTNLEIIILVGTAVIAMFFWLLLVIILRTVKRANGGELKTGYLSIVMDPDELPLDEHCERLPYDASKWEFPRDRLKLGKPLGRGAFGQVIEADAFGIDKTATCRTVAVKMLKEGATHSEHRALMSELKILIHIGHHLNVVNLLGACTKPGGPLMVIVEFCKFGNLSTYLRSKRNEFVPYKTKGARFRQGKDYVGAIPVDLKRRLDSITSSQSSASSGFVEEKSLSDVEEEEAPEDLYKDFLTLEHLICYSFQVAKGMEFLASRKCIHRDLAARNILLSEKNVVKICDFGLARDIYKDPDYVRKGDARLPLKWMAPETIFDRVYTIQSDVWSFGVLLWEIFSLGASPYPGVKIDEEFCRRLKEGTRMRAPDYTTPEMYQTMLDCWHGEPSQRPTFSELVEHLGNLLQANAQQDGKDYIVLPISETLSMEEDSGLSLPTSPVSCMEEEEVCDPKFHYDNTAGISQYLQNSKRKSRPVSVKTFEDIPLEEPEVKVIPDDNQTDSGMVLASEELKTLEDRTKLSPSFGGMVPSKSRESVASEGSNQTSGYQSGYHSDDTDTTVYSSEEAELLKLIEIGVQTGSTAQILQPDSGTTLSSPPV
Protocol: The VEGFR2 kinase inhibitory activity of representative examples of compounds of Formula (I) assays was evaluated in Eurofins Cerep (France). The concentration range of the inhibitors under investigation was from 10^−8 M up to 10^−5 M final concentration. Some compounds were re-tested in a concentration-range starting from 10^−9 M. The results are expressed as a percent of control activity (in the absence of test compound) and the IC50 values were determined by non-linear regression analysis of the inhibition/concentration curves generated with mean replicate values.

NF-kB = test: Gene reporter (GR) assay, NF-kB activation after TNFα in JB6 Cl 41-5a (P+) cells; assay type: cell-based, murine; details: Mus musculus, JB6 Cl 41-5a, TNFα 2 ng/ml, non toxic concentrations; read-out: Gene reporter (GR) inhibition IC50
Source text: To determine if the compounds of the invention were active also in a cellular model, a gene reporter assay was established in a cell line (JB6 Cl 41-5a (P+)) know to activate Fyn kinase via an inflammatory stimuli (TNFα). GR assay measures the activation of the nuclear transcription factor NF-kB, situated down-stream the Fyn activation pathway. Products active in this analysis has to penetrate in the cell and inhibit the activation pathway of NF-kB.
The murine epithelial cell line JB6 Cl 41-5a (P+) (ATCC® Cat. #CRL-2010) was stably transfected with the pGL4.32[luc2P/NFkB-RE/Hygro] vector (Promega). Clonal selection was achieved by limiting with 80 μg/ml Hygromycin B. The clones were tested for their response to TNFα stimulus.
JB6(P+) NFkB-RE-luc2P transfected cells were used for the analysis of NF-kB activity modulation, after TNFα stimulation, by Fyn-inhibitors.
Cells were pre-treated with the different compounds for 1 h and then stimulated with 2 ng/ml TNFα for 4 h. Each tested condition was analyzed in quadruplicate.
The luciferase analysis was performed with ONE-Glo™+ToxLuciferase Reporter and Cell Viability Assay kit (Promega).

IL-1β = test: Gene expression in rat articular chondrocytes under IL-1β stimulation, IL-1β; assay type: cell-based; details: for IL-1β gene expression, percentage of inhibitory effect at the highest non toxic concentration: 6 h
Protocol: (§1) For gene expression analysis, 10 days after plating, the medium was changed and substituted with DMEM GlutaMAX I 0.4% to synchronize the cells. The cells were then co-treated in DMEM GlutaMAX I 0.4% with different concentrations of the test compounds and […] at a final concentration of 2 ng/ml for 6 h and 24 h. The test compound concentrations used have been chosen on the basis of the toxicity data.
(§2) At the end of the incubation, the supernatant was discarded, the cell were washed with cold PBS1X and scraped with 200 μl of RNA lysis buffer 1X (Nucleic Acid Purification Lysis Solution, Applied Biosystems).
(§3) Total RNA was purified using ABI Prism™ 6100 Nucleic Acid PrepStation (Applied Biosystems) following manufacturer's instructions.
(§4) Total RNA was retrotranscribed using the High-Capacity cDNA Archive Kit (Applied Biosystems-Thermo Fisher Scientific) following manufacturer's instructions.
(§5) The specific probes and primers for RealTime PCR were from Applied Biosystems (Thermo Fisher Scientific) as Assays-on-Demand™, while the probe and primers for the endogenous control 18S was a PDAR (Pre-Developed TaqMan® Assay Reagents—Applied Biosystems-Thermo Fisher Scientific).
(§6) The assays were designed to amplify target cDNA without amplifying genomic DNA.
(§7) Gene expression analysis for IL-1β, IL-6 and ADAMTS-5 were performed at 6 h incubation, while the gene expression analysis for MMP3, MMP13 and COX2 were performed at 24 h incubation.
(§8) For each compound the maximal concentration tested was dependent on the toxicity results obtained on primary rat chondrocytes.
(§9) The data analysis, with the normalisation on the amplified values for the 18S was done following the specific instruction of Applied Biosystems for the relative quantification of gene expression.

IL-6 = test: Gene expression in rat articular chondrocytes under IL-1β stimulation, IL-6; assay type: cell-based; details: for IL-6 gene expression, percentage of inhibitory effect at the highest non toxic concentration: 6 h
Protocol: as §1, §2, §3, §4, §5, §6, §7, §8, §9

COX2 = test: Gene expression in rat articular chondrocytes under IL-1β stimulation, COX2; assay type: cell-based; parameters: key to COX2 gene expression, no effect: ne: no effect
ADAMTS-5 = test: Gene expression in rat articular chondrocytes under IL-1β stimulation, ADAMTS-5; assay type: cell-based; details: for ADAMTS-5 gene expression, percentage of inhibitory effect at the highest non toxic concentration: 6 h
Protocol: as §1, §2, §3, §4, §5, §6, §7, §8, §9

MMP3 = test: Gene expression in rat articular chondrocytes under IL-1β stimulation, MMP3; assay type: cell-based; parameters: key to MMP3 gene expression, no effect: ne: no effect
Protocol: as §1, §2, §3, §4, §5, §6, §7, §8, §9

MMP13 = test: Gene expression in rat articular chondrocytes under IL-1β stimulation, MMP13; assay type: cell-based; parameters: key to MMP13 gene expression, no effect: ne: no effect; details: 24 h
Protocol: as §1, §2, §3, §4, §5, §6, §7, §8, §9

[1] = tested on: bovine nasal septum cartilage; test: Inhibition of cartilage degradation (GAG release) induced by IL-1α in a bovine in vitro model; assay type: cell-based; parameters: key to Bovine cartilage degradation induced by IL-1α, no effect: ne: no effect; details: for Inhibitory effect on the GAG release: at max concentration
Protocol: Nasal septum cartilage was collected from an eight months-old male bovine in a local slaughterhouse.
Tissue was sprayed with ethanol 70% and immediately put in sterile PBS with Antibiotic-Antimycotic stabilized solution (PBS-AASS). It was cut in order to obtain small punches (diameter 2 mm, 1 mm-thick). washed with sterile PBS-AASS, the slices were transferred in a 96X well plate (one piece per well) in DMEM 10%+AASS. 48 h later the cartilage was stimulated in white DMEM+0.1% BSA+AASS with IL-1α […] in the absence or presence of the studied compounds.
The compounds concentration used in this analysis was chosen depending on the toxicity results obtained in rat primary chondrocytes at 48 h of incubation.
After 48 h stimulation, the culture medium was collected and stored at −80° C. The cartilage punches were digested with papain at 65° C. for 2 h in phosphate buffer (0.05M pH 6.5 with 2 mM N-acetil-L-cisteine and 2 mM EDTA).
The glycosaminoglycan (GAG) determination was done by a colorimetric assay with 1,9 dimethyl methylene blue (DMB).
Digested cartilage samples were diluted in PBS-BSA 1%. To 100 μl of diluted samples or standard we added 100 μl DMB 2X. After 5-20 min incubation the samples were read at 590 nm (Titertek Multiscan Plus).
The cartilage degradation induced by IL-1α was expressed as: GAG (medium)/total GAG (medium+cartilage)×100

[2] = tested on: rat primary articular chondrocytes; test: Toxicity analysis (MTT) in rat primary chondrocytes; details: for First toxic concentration at 24 h: rat primary chondrocytes
[3] = Rattus norvegicus, Chondrocyte, 6 h incubation
[4] = Rattus norvegicus, Chondrocyte, 24 h incubation
[5] = Bos taurus, read-out: Bovine cartilage degradation induced by IL-1α, % inhibitory effect at max concentration

Sequence of Fyn (P06241 whole entry): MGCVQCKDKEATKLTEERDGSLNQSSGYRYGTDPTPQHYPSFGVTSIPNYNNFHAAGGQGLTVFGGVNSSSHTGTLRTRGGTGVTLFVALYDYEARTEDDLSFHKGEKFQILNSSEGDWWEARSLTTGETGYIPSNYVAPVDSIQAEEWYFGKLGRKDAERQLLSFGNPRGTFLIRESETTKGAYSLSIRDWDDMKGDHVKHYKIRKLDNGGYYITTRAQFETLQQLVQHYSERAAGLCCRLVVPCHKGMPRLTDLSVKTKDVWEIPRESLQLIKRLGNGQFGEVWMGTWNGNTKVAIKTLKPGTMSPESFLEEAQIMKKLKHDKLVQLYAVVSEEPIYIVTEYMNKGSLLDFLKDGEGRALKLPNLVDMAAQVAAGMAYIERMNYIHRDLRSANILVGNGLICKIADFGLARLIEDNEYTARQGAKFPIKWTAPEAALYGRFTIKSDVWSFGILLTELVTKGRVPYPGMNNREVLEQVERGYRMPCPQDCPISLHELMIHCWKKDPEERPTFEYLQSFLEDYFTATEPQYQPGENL

## CCNC1(c2ccc(C(=O)Nc3ccc(C)c(CCc4cc(Nc5cnccn5)[nH]n4)c3)cc2)CC1 [Compound 4, 4-(1-(ethylamino)cyclopropyl)-N-(4-methyl-3-(2-(5-(pyrazin-2-ylamino)-1H-pyrazol-3-yl)ethyl)phenyl)benzamide]
Fyn
  pIC50: 7.68
VEGFR2
  pIC50: > 8.00
NF-kB
  pIC50: 5.65
IL-1β; [3]
  pIC50: 5.77
IL-6; 10 μM
  IL-6 gene expression, percentage of inhibitory effect at the highest non toxic concentration: 10 μM 93%
COX2; [4]
  pIC50: 5.85
ADAMTS-5; [3]
  pIC50: 5.52
MMP3; 10 μM, 24 h
  MMP3 gene expression, percentage of inhibitory effect at the highest non toxic concentration: 10 μM 55%
MMP13; 10 μM
  MMP13 gene expression, percentage of inhibitory effect at the highest non toxic concentration: 10 μM 84%
[1]
  Bovine cartilage degradation induced by IL-1α, no effect: ne
[2]
  First toxic concentration at 48 h in rat primary chondrocytes: 3 µM
  First toxic concentration at 24 h: >10 µM

## O=C(Nc1ccc(F)c(CCc2cc(Nc3cnccn3)[nH]n2)c1)c1cccc(C(F)(F)F)c1 [Compound 13, N-(4-fluoro-3-(2-(5-(pyrazin-2-ylamino)-1H-pyrazol-3-yl)ethyl)phenyl)-3-(trifluoromethyl) benzamide]
Fyn
  pIC50: 7.59
VEGFR2
  pIC50: > 8.00
NF-kB
  pIC50: 6.51
IL-1β; 1 μM
  IL-1β gene expression, percentage of inhibitory effect at the highest non toxic concentration: 1 μM 96%
IL-6; 1 μM
  IL-6 gene expression, percentage of inhibitory effect at the highest non toxic concentration: 1 μM 100%
COX2; 1 μM, 24 h
  COX2 gene expression, percentage of inhibitory effect at the highest non toxic concentration: 1 μM 96%
ADAMTS-5; 1 μM
  ADAMTS-5 gene expression, percentage of inhibitory effect at the highest non toxic concentration: 1 μM 88%
MMP3; [4]
  pIC50: 6.52
MMP13; 1 μM
  MMP13 gene expression, percentage of inhibitory effect at the highest non toxic concentration: 1 μM 94%
[1]; [5]
  inhibition at 1 µM: 97%
[1]
  Inhibitory effect on the GAG release: 95-100%
[2]
  First toxic concentration at 48 h in rat primary chondrocytes: 3 µM
  First toxic concentration at 24 h: 3 µM

## Cc1ccc(NC(=O)c2cccc(C(F)F)c2)cc1CCc1cc(Nc2cnccn2)[nH]n1 [Compound 33, 3-(difluoromethyl)-N-(4-methyl-3-(2-(5-(pyrazin-2-ylamino)-1H-pyrazol-3-yl)ethyl)phenyl) benzamide]
Fyn
  pIC50: 7.80
VEGFR2
  pIC50: > 8.00
NF-kB
  pIC50: 6.44
IL-1β; 3 μM
  IL-1β gene expression, percentage of inhibitory effect at the highest non toxic concentration: 3 μM 93%
IL-6; 3 μM
  IL-6 gene expression, percentage of inhibitory effect at the highest non toxic concentration: 3 μM 100%
COX2; 3 μM, 24 h
  COX2 gene expression, percentage of inhibitory effect at the highest non toxic concentration: 3 μM 89%
ADAMTS-5; 3 μM
  ADAMTS-5 gene expression, percentage of inhibitory effect at the highest non toxic concentration: 3 μM 90%
MMP3; 3 μM, 24 h
  MMP3 gene expression, percentage of inhibitory effect at the highest non toxic concentration: 3 μM 81%
MMP13; 3 μM
  MMP13 gene expression, percentage of inhibitory effect at the highest non toxic concentration: 3 μM 94%
[1]; Bos taurus, 3 μM, read-out: Bovine cartilage degradation induced by IL-1α, % inhibitory effect at max concentration
  inhibition at 3 µM: 91%
[2]
  First toxic concentration at 48 h in rat primary chondrocytes: 10 µM
  First toxic concentration at 24 h: 10 µM

## Cc1nc(C(=O)Nc2ccc(C)c(CCc3cc(Nc4cnccn4)[nH]n3)c2)c(C(F)(F)F)o1 [Compound 6, 2-methyl-N-(4-methyl-3-(2-(5-(pyrazin-2-ylamino)-1H-pyrazol-3-yl)ethyl)phenyl)-5-(trifluoromethyl)oxazole-4-carboxamide]
Fyn
  pIC50: 6.95
VEGFR2
  pIC50: > 8.00
NF-kB
  pIC50: 5.57
IL-1β; 1 μM
  IL-1β gene expression, percentage of inhibitory effect at the highest non toxic concentration: 1 μM 50%
IL-6; [3]
  pIC50: 6.19
COX2; 24 h
  COX2 gene expression, no effect: ne
ADAMTS-5; 1 μM
  ADAMTS-5 gene expression, percentage of inhibitory effect at the highest non toxic concentration: 1 μM 28%
MMP3; 24 h
  MMP3 gene expression, no effect: ne
MMP13
  MMP13 gene expression, no effect: ne
[1]
  Bovine cartilage degradation induced by IL-1α, no effect: ne
[2]
  First toxic concentration at 48 h in rat primary chondrocytes: 3 µM
  First toxic concentration at 24 h: 3 µM

## Cc1nccnc1Nc1cc(CCc2cc(NC(=O)c3cccc(C(F)(F)F)c3)ccc2F)n[nH]1 [Compound 15, N-(4-fluoro-3-(2-(5-((3-methylpyrazin-2-yl)amino)-1H-pyrazol-3-yl)ethyl)phenyl)-3-(trifluoromethyl)benzamide]
Fyn
  pIC50: 7.74
VEGFR2
  pIC50: > 8.00
IL-1β; 3 μM
  IL-1β gene expression, percentage of inhibitory effect at the highest non toxic concentration: 3 μM 98%
IL-6; 3 μM
  IL-6 gene expression, percentage of inhibitory effect at the highest non toxic concentration: 3 μM 100%
COX2; 3 μM, 24 h
  COX2 gene expression, percentage of inhibitory effect at the highest non toxic concentration: 3 μM 97%
ADAMTS-5; 3 μM
  ADAMTS-5 gene expression, percentage of inhibitory effect at the highest non toxic concentration: 3 μM 96%
MMP3; 3 μM, 24 h
  MMP3 gene expression, percentage of inhibitory effect at the highest non toxic concentration: 3 μM 90%
MMP13; 3 μM
  MMP13 gene expression, percentage of inhibitory effect at the highest non toxic concentration: 3 μM 99%
[1]; [5]
  inhibition at 1 µM: 96%
[1]
  Inhibitory effect on the GAG release: 95-100%
[2]
  First toxic concentration at 48 h in rat primary chondrocytes: 3 µM
  First toxic concentration at 24 h: 10 µM
